Laboratory results reported in patent publication US20220153732A1, “PROTEIN SECRETION INHIBITORS” (KEZAR LIFE SCIENCES, priority 2019, published 2022).
Like-named read-outs stand apart in the source and are kept apart here.

Assays:
Type in all cases: cell-based
[1] = system: PD1-ss+10aa/Gaussia Luciferase; assay: Dox-Induced PD1-ss-Gluc Assay; details: 293FRT/TO cells, read-out: 24 hr Dox Inducible PD1ssGluc 293FRT/TO: Mean IC50
Description: (§1) Transfected cells were selected for resistance to the selectable markers Hygromycin and Blasticidin to create a stable cell line that contained the PD1-ss+10aa/Gaussia Luciferase cDNA insert whose expression was regulated under the T-REx™ system. The day before assay, cells were trypsinized and plated in 384-well tissue culture plates. The next day, compound dilutions in DMSO/media containing doxycycline were added to the wells and incubated at 37° C., 5% CO2.
(§2) For chemical structures that include one or more stereoisomers, but are illustrated without indicating stereochemistry, the assay data refers to a mixture of stereoisomers.

[2] = system: TNFα-FL/Gaussia Luciferase; assay: Dox Induced TNFα-FL-Gluc Assay; details: 293FRT/TO cells, read-out: 24 hr Dox Inducible TNFaFLGluc 293FRT/TO: Mean IC50
Description: as §1, with “TNFα-FL/Gaussia” for “PD1-ss+10aa/Gaussia”, “T-RExTM” for “T-REx™”, “CO2. […] For chemical structures that include one or more stereoisomers, but are illustrated without indicating stereochemistry, the assay data refers to a mixture of stereoisomers.” for “CO2.”

[3] = system: HER3-ss+4aa/Gaussia Luciferase; assay: Dox-Induced Her3-ss-Gluc Assay; details: 293FRT/TO cells, read-out: 24 hr Dox Inducible Her3(ss + 4)Gluc 293FRT/TO: Mean IC50
Description: as §1, with “HER3-ss+4aa/Gaussia” for “PD1-ss+10aa/Gaussia”
as §2

[4] = system: IL-2-FL/Gaussia Luciferase; assay: Dox Induced IL2-FL-Gluc Assay; details: 293FRT/TO cells, read-out: 24 hr Dox Inducible IL2FLGIuc 293FRT/TO: Mean IC50
Description: as §1, with “IL-2-FL/Gaussia” for “PD1-ss+10aa/Gaussia”, “T-RExTM” for “T-REx™”, “CO2. […] For chemical structures that include one or more stereoisomers, but are illustrated without indicating stereochemistry, the assay data refers to a mixture of stereoisomers.” for “CO2.”

[5] = system: human multiple myeloma cell line NCI-H929; assay: H929 Cell Viability Assay; details: 48 hr, NCI-H929 cells, Celltiter-Glo, read-out: 48 hr H929 Viability Celltiter-Glo: Mean EC50
Description: (§3) Plates were incubated at 37° C., 5% CO2 for 48 hours. After 48 hours, Celltiter-Glo® (Promega) was added to each well and luciferase signal was quantified using Tecan Infinite M1000 Pro for cell viability determination.
as §2

[6] = system: human multiple myeloma cell line U266B1; assay: U266 Cell Viability Assay; details: U-266, 48 hr, U266B1 cells, Celltiter-Glo, read-out: 48 hr U266 Viability Celltiter-Glo: Mean EC50
Description: as §3, with “Cells were plated in 384-well tissue culture plates and treated with compound dilutions in DMSO/media. Plates” for “Plates”
as §2

[7] = 24 hr doxycycline induction, Gaussia luciferase signal

| Structure (SMILES) | IC50 ([1]; 24 hr, doxycycline-induced) [µM] | IC50 ([2]; 24 hr, doxycycline-induced) [µM] | IC50 ([3]; 24 hr, doxycycline-induced) [µM] | IC50 ([4]; 24 hr, doxycycline-induced) [µM] | EC50 [5] [µM] | EC50 [6] [µM] | IC50 [1, 7] [µM] | IC50 [2, 7] [µM] | IC50 [3, 7] [µM] | IC50 [4, 7] [µM] |
| --- | --- | --- | --- | --- | --- | --- | --- | --- | --- | --- |
| O=C(Nc1nc([C@@H]2CCCN2C(=O)c2ccccc2)cs1)c1cccn1Cc1ccncc1 [Compound A313] | 3.86 | > 25 | 7.9 | 6.36 | > 25 | > 25 |  |  |  |  |
| O=C(Nc1nc([C@@H]2CCC[C@@H](c3ccccc3)C2)cs1)c1cccn1Cc1ccncc1 [Compound A271] |  |  |  |  | 15.5 | > 25 | 0.316 | 2.87 | 0.912 | 0.951 |
| O=C(Nc1ncc([N+](=O)[O-])s1)c1cccn1Cc1ccncc1 [Compound B17] | > 25 | > 25 | > 25 | > 25 | > 25 | > 25 |  |  |  |  |
| CC(=O)NCCc1nc(NC(=O)c2cccn2Cc2ccncc2)sc1C [Compound B22, N-(4-(2-acetamidoethyl)-5-methylthiazol-2-yl)-1-(pyridin-4-ylmethyl)-1H-pyrrole-2-carboxamide] | > 25 | > 25 | > 25 | > 25 | > 25 | > 25 |  |  |  |  |
| O=C(Nc1nc(C2=CCN(c3ccccc3)CC2)cs1)c1cccn1Cc1ccncc1 [Compound A258] |  |  |  |  | 23.8 | > 25 | 0.701 | > 25 | 6.4 | 14.5 |
| O=C(Nc1nc(C2CCCN(c3ccccc3)C2)cs1)c1cccn1Cc1ccncc1 (stereo not drawn) [Compound A306, N-(4-(1-phenylpiperidin-3-yl)thiazol-2-yl)-1-(pyridin-4-ylmethyl)-1H-pyrrole-2-carboxamide] | 0.184 | 1.79 | 0.495 | 0.489 | 11.2 | > 25 |  |  |  |  |
| O=C(Nc1nc(C2CCC2)cs1)c1cccn1Cc1ccncc1 [Compound A31] |  |  |  |  | > 25 | > 25 | 0.596 | 11.8 | 1.63 | 1.34 |
| O=C(Nc1nc([C@@H]2CC[C@@H](c3ccccc3)C2)cs1)c1cccn1Cc1ccncc1 (stereo in doubt) [Compound A292, N-(4-((1R,3R)-3-phenylcyclopentyl)thiazol-2-yl)-1-(pyridin-4-ylmethyl)-1H-pyrrole-2-carboxamide] |  |  |  |  | 19 | > 25 | 0.211 | 2.51 | 0.471 | 0.835 |
| O=C(Nc1nc(/C=C/c2ccoc2)cs1)c1cccn1Cc1ccncc1 [Compound A222, N-(4-(2-(furan-3-yl)vinyl)thiazol-2-yl)-1-(pyridin-4-ylmethyl)-1H-pyrrole-2-carboxamide] |  |  |  |  | 19.1 | > 25 | 0.348 | 7.7 | 1.8 | 2.27 |
| O=C(Nc1nc(/C=C/c2ccc([N+](=O)[O-])cc2)cs1)c1cccn1Cc1ccncc1 [Compound A227] |  |  |  |  | 8.95 | > 21.4 | 0.053 | 1.9 | 0.379 | 0.625 |
| O=C(Nc1nc(C2CN(c3ccccc3)C2)cs1)c1cccn1Cc1ccncc1 [Compound A316] | 0.117 | 3.17 | 0.313 | 0.762 | > 25 | > 25 |  |  |  |  |
| O=C(Nc1nc([C@H]2C[C@H](Oc3ccccc3)C2)cs1)c1cccn1Cc1ccncc1 [Compound A329] | 0.202 | 3.16 | 0.342 | 0.739 | 22.8 | > 25 |  |  |  |  |
| Cc1ccc(/C=C/c2csc(NC(=O)c3cccn3Cc3ccncc3)n2)nc1 [Compound A357] | 0.012 | 7.48 | 2.31 | 9.07 | 10.7 | 17.9 |  |  |  |  |

Second part, the molecule after the results:

| IC50 ([1]; 24 hr, doxycycline-induced) [µM] | IC50 ([2]; 24 hr, doxycycline-induced) [µM] | IC50 ([3]; 24 hr, doxycycline-induced) [µM] | IC50 ([4]; 24 hr, doxycycline-induced) [µM] | EC50 [5] [µM] | EC50 [6] [µM] | IC50 [1, 7] [µM] | IC50 [2, 7] [µM] | IC50 [3, 7] [µM] | IC50 [4, 7] [µM] | Structure (SMILES) |
| --- | --- | --- | --- | --- | --- | --- | --- | --- | --- | --- |
|  |  |  |  | 2.77 | > 25 | 0.038 | 0.377 | 0.091 | 0.148 | COc1cccc(C(C)OC(C)(C)c2csc(NC(=O)c3cccn3Cc3ccncc3)n2)c1 (stereo not drawn) [Compound A4, N-(4-(2-(1-(3-methoxyphenyl)ethoxy)propan-2-yl)thiazol-2-yl)-1-(pyridin-4-ylmethyl)-1H-pyrrole-2-carboxamide] |
|  |  |  |  | 20.8 | > 25 | 0.272 | 2.87 | 0.643 | 1.2 | COc1cccc(CCc2csc(NC(=O)c3cccn3Cc3ccncc3)n2)c1 [Compound A176] |
|  |  |  |  | > 25 | > 25 | 1.38 | > 25 | 4.05 | 4.45 | CC(C)(C)c1cnc(NC(=O)c2cccn2Cc2ccncc2)s1 [Compound A54] |
| 1.97 | > 25 | 12.1 | 8.42 | > 25 | > 25 |  |  |  |  | C=Cc1csc(NC(=O)c2cccn2Cc2ccncc2)n1 [Compound B2] |
|  |  |  |  | 5.06 | > 25 | 0.088 | 1.16 | 0.181 | 0.376 | O=C(Nc1nc(C2CC(c3ccccc3)C2)cs1)c1cccn1CCCc1ccncc1 (stereo not drawn) [Compound A287] |
|  |  |  |  | > 25 | > 25 | 0.643 | 18.3 | 1.57 | 1.2 | CC(C)OC(C)(C)c1csc(NC(=O)c2cccn2Cc2ccncc2Cl)n1 [Compound A238, 1-((3-chloropyridin-4-yl)methyl)-N-(4-(2-isopropoxypropan-2-yl)thiazol-2-yl)-1H-pyrrole-2-carboxamide] |
| 0.879 | 13.5 | 1.69 | 2.37 | 17.2 | > 25 |  |  |  |  | CC(C)(OCc1ccc(N=[N+]=[N-])cc1)c1csc(NC(=O)c2cccn2Cc2ccncc2C#N)n1 [Compound A308] |
|  |  |  |  | 2.99 | 3.76 | 4.74 | > 25 | 4.2 | 4.57 | CC(C)OC(C)(C)c1csc(NC(=O)c2cccn2Cc2ccncc2NCc2ccccc2)n1 [Compound A212, 1-((3-(benzylamino)pyridin-4-yl)methyl)-N-(4-(2-isopropoxypropan-2-yl)thiazol-2-yl)-1H-pyrrole-2-carboxamide] |
|  |  |  |  | > 25 | > 25 | 2.07 | > 25 | 2.73 | 2.76 | CC(C)OC(C)(C)c1csc(NC(=O)c2cccn2CCCc2ccccc2Cl)n1 [Compound A68, 1-(3-(2-chlorophenyl)propyl)-N-(4-(2-isopropoxypropan-2-yl)thiazol-2-yl)-1H-pyrrole-2-carboxamide] |
|  |  |  |  | > 25 | > 25 | > 25 | > 25 | > 25 | > 25 | CC(C)OC(C)(C)c1csc(NC(=O)c2cccc(=O)n2Cc2ccncc2)n1 [Compound A106, N-(4-(2-isopropoxypropan-2-yl)thiazol-2-yl)-6-oxo-1-(pyridin-4-ylmethyl)-1,6-dihydropyridine-2-carboxamide] |
